{"source": "patent US20140196172A1", "about": "“Organelle Targeting Nanocarriers” (Her Majesty the Queen in Right of Canada, as Repre sented …, priority 2011, published 2014)", "data": [{"test_system": "MDCK (Madin-Darby canine kidney) cells", "test": "Incubation of MDCK cells with fluorescently labeled peptides, confocal microscopy", "type": "cell-based", "details": "fluorescein-labelled peptide, 1 h, MitoTracker Orange", "experimental": "MDCK cells are cultured in Dulbecco's Modified Eagle Medium (DMEM) containing 5% (v/v) fetal bovine serum (FBS) and 1% (v/v) penicillin/streptomycin at 37° C. in a humidified atmosphere containing 5% CO2. The cells grown on 10-cm dishes are detached with trypsin and ethylenediaminetetraacetic acid (EDTA) and washed with DMEM/FBS. Cells used for microscopy are prepared by adding 100 000 cells to the apical chamber of 12-mm diameter Transwell™ permeable supports (Costar, Cambridge, Mass.). Cells are cultured in DMEM/FBS for 3-5 days.\nMDCK cells cultured in apical chambers of 12-mm diameter Transwell™ permeable supports are incubated with 80 μl fluoresceinated mTPs or cTPs (100 μM) and 320 μl of Dulbecco's Modified Eagle Medium (DMEM) for 1 h in the dark at room temperature, followed by washing with 400 μl of DMEM.\nCells are observed using a confocal microscope (Nikon C1, Nikon Canada Inc. or Olympus FluoView™) to analyse the localization of the fluoresceinated mTPs or cTPs (excitation wavelength 490 nm/emission wavelength 520 nm). Chloroplasts are identified by autofluorescence. The fluorescent dye MitoTracker® Orange CM-H2TMRos (M7511, Invitrogen) is used to stain mitochondria (excitation wavelength 554 nm/emission wavelength 576 nm). Fluorescence emissions are collected in z-confocal planes of […] and analyzed using EZ-C1 Software Version 3.6 (Nikon) or Olympus FluoView™ software version 2.0b (Olympus).", "values": [{"sequence": "MLFRLRRSVRLRGLLA (listed as Arabidopsis thaliana) [mTP5]", "Mitochondrial targeting": "Specific mitochondrial targeting"}, {"sequence": "MWWRRSRTNSLRYT (listed as Arabidopsis thaliana) [mTP4]", "Mitochondrial targeting": "non-specific mitochondrial localization"}, {"sequence": "MAAWMRSLFSPLKKLWIRMH (Zea mays) [mTP2]", "Mitochondrial targeting": "non-specific mitochondrial localization"}, {"sequence": "MKLLWRLILSRKW (listed as Arabidopsis thaliana) [mTP3]", "Mitochondrial targeting": "Specific mitochondrial targeting"}, {"sequence": "MFSYLPRYPLRAASARALVRATRPSYRSALLRYQ (listed as Triticum aestivum) [mTP1]", "Mitochondrial targeting": "Specific mitochondrial targeting"}]}, {"test_system": "chloroplasts of triticale protoplasts", "test": "qRT-PCR of gfp mRNA, protoplasts transfected with pWCaadA16GFP", "type": "cell-based", "details": "gfp reporter construct", "from_the_text": "FIG. 20 is a plot showing the level of expression (fold increase, average of 4 replicates) of GFP in triticale protoplasts transfected with the pWCaadA16GFP plasmid in the presence of cTP1 (SEQ ID NO: 6), cTP2 (SEQ ID NO: 7), cTP3 (SEQ ID NO: 8), cTP4 (SEQ ID NO: 9) or cTP5 (SEQ ID NO: 10) compared to the level of expression (fold increase) of the internal control elongation factor 1a (EF1a), as measured by quantitative real time PCR of mRNA levels.\nWheat chloroplast aadA16GFP reporter plasmid (pWCaadA16GFP, FIG. 12) is a 4212 base pair wheat specific plastid transformation vector, which targets insertions into the tml-tmA inverted repeat regions of the Triticum aestivum plastid genome at nucleotides 92850-93727 and 93794-94671 (GenBank accession No. AB042240.3). A multiple cloning site is introduced following the tml target insertion sequence. The selection marker gene is an organelle codon specific aad-gfp fusion gene, which facilitates a dual selection method of spectinomycin resistance through an aadA derivative and visual detection by GFP fluorescence (GenBank accession No. ABX39486; Khan and Maliga, Nat. Biotechnol. (1999 September) 17(9): 910-5). The selection marker gene is driven by the Triticum aestivum plastid genome promoter (psbA) at nucleotides 1282-1153 (GenBank accession No. AB042240.3). The aad-gfp fusion gene is terminated with the rice psbA terminator sequence derived from chloroplast transformation vector pVSR326 nucleotides 4014-4387 (GenBank accession No. AF527485.1).\nThe dsDNA construct (pWMaadA16GFP for mitochondrial expression or pWCaadA16GFP for expression in chloroplasts) is combined with the mTP (for mitochondrial expression) or cTP (for expression in chloroplasts) in a final volume of 100 μl of CPW solution. For experiments using mTP1 (SEQ ID NO: 1), mTP2 (SEQ ID NO: 2), mTP3 (SEQ ID NO: 3), or mTP5 (SEQ ID NO: 5), peptides (scaled up from 100 ng, at four times the concentration needed to cause a DNA shift in the gel mobility shift assay (Table 7)) are combined with the pWMaadA16GFP construct (5 μg). For experiments using the remaining oTPs, peptides (30 μg) are combined with the appropriate dsDNA construct (1.5 μg). The mixture is incubated for 10 minutes at room temperature, then incubated with isolated triticale mesophyll protoplasts (500 μl, 10^6 protoplasts/ml, prepared as described in Example 2) for 1 h in the dark at room temperature. CPW solution (500 μl) is added and the mixture is incubated in the dark for 24 h. The cells are imaged using confocal microscopy, as described in Example 2, using MitoTracker® Orange staining to visualize mitochondria and chlorophyll autofluorescence to visualize chloroplasts.\ncDNA is generated using a First Strand Synthesis kit (Invitrogen). RNA (1 μg) is added to each sample and the manufacturer's protocol for synthesis followed, with the exception that the volume of the reaction mixture is increased from 20 μl to 30 μl. A negRT sample containing all reagents but no RNA is included in the cDNA synthesis as a negative control.\nStandard curves are generated for both elongation factor 1a (EF1a) (internal control) and green fluorescent protein (GFP) (test) genes. The EF1a curve is generated by pooling 6 μl of each cDNA sample (excluding the negRT control), then carrying out a serial dilution of 0.5 for 5 more dilutions. […]\nReal time PCR reactions are performed using QuantiTect™ SYBR™ Green PCR Master Mix (Qiagen) in a 20 μl reaction volume. […]", "values": [{"sequence": "MAALIPAIASLPRAQVEKPHPMPVSTRPGLVS (listed as Triticum aestivum) [cTP4]", "GFP expression by chloroplasts confirmed by qRT-PCR": "GFP is expressed"}, {"sequence": "MGGCVSTPKSCVGAKLR (listed as Arabidopsis thaliana) [cTP1]", "GFP expression by chloroplasts confirmed by qRT-PCR": "GFP is expressed"}, {"sequence": "MSSPPPLFTSCLPASSPSIRRDSTSGSVTSPLR (listed as Arabidopsis thaliana) [cTP5]", "GFP expression by chloroplasts confirmed by qRT-PCR": "GFP is expressed"}, {"sequence": "MQTLTASSSVSSIQRHRPHPAGRRSSSVTFS (listed as Triticum aestivum) [cTP2]", "GFP expression by chloroplasts confirmed by qRT-PCR": "GFP is expressed"}]}]}
